For one assay, the target named is T1, TRIM25 PRYSPRY (Homo sapiens, UniProt Q14258).
T1 construct: His6-TEV (cleaved yes); made in house; host or cells: Sf9 insect cells (baculovirus)
Description: Intact protein LCMS covalent labelling of recombinant TRIM25 PRYSPRY. Format: binding. To be noted: TRIM25 PRYSPRY 10 μM, 4 °C; for TRIM25 PRYSPRY labelling (%): purified compound 50 μM, 24 h; for TRIM25 PRYSPRY labelling: heterobifunctional compound 50 μM, 20 hours. The method, then: 1 resin (ThermoFisher Scientific, 89964), eluted in 100 mM HEPES pH 7, 500 mM NaCl,
2 300 mM Imidazole, 5% glycerol, 1 mM TCEP, and stored at -80 °C.
5 into a pET49 vector with a His6-HRV-3C (Human Rhinovirus) tag and expressed in
6 BL21 E.coli cells (Agilent Technologies; 230132), with induction at 18 °C overnight by
7 addition of isopropyl β-D-1-thiogalactopyranoside (0.5 mM). Cells were harvested by
8 centrifugation at 4000 rpm in a Beckman J6-M1 rotor for 30 min at 4 °C, the
9 supernatant was discarded and cell pellets were either immediately lysed, or stored at
10 -80°C. The protein was purified via His6-capture on HisPurTM Ni-NTA resin in buffer
11 50 mM HEPES pH 7.5, 300 mM NaCl, 0.5 mM TCEP, 20 mM imidazole, washed
12 extensively with both high salt buffer (50 mM HEPES pH 7.5, 1 M NaCl, 0.5 mM TCEP,
13 20 mM imidazole) and wash buffer (50 mM HEPES pH 7.5, 300 mM NaCl, 0.5 mM
14 TCEP, 20 mM imidazole) before elution in buffer 50 mM HEPES pH 7.5, 300 mM NaCl,
15 0.5 mM TCEP, 500 mM imidazole, and tag cleavage with HRV-3C protease. Cleaved
16 protein was further purified by ion exchange chromatography and size exclusion
17 chromatography into 20 mM HEPES pH 7.5, 150 mM NaCl, 0.5 mM TCEP, and stored
21 For the original chloroacetamide fragment screen, 0.25 μM TRIM25 PRYSPRY or
23 25 mM HEPES pH 7.5, 50 mM NaCl buffer. For intact protein liquid chromatography
24 mass spectrometry (LCMS) kinetic characterisation, 0.5 μM TRIM25 PRYSPRY was
25 used. For selectivity testing with recombinant ubiquitin system protein panel, 10 µM
27 7.5, 50 mM NaCl buffer. Samples were then diluted to 0.5 µM for TRIM25 PRYSPRY,
28 TRIM21 PRYSPRY, OTUD7B OTU, ZRANB1 OTU or 1 µM for TRIM2 NHL, UBCH5B,
29 UBC13K92A, UEV1A, OTUD4 OTU, before injection into the LCMS. For TRIM25
30 PRYSPRY mutants, and for labelling of heterobifunctional compounds, 10 µM protein
32 mM NaCl buffer, and samples were diluted to 1 µM protein before injection into the […]

Assay [1] deals with T2, BRD4 (ubiquitination by TRIM25) (Homo sapiens, UniProt O60885+Q14258).
T2 construct: Recombinant full-length BRD4 (short isoform); Full-length TRIM25 (4 μM) was pre-labelled with either DMSO or compound HB1, HB2 or HB3; made in house; host or cells: Sf9 insect cells (full-length TRIM25); UBA1 and UBCH5B were made as previously described
Description: In vitro targeted protein ubiquitination time course assay for BRD4. To be noted: TRIM25 4 μM pre-labelled with compound 50 μM, 20 h, 4 °C, excess removed (HB1a 4 μM added directly); 60 min at 30 °C. Format: biochemical. How it is done:
1 containing 500 mM DTT (ThermoFisher Scientific, R0861). Timepoint at 0 min
2 indicates the sample taken prior to the addition of ATP. Samples were analysed by
3 SDS-PAGE and imaged by Coomassie staining, and using the Odyssey CLx Infrared
4 Imaging System (Li-Cor).
6 For targeted protein ubiquitination assays with compounds HB1 – HB3, His10-TRIM25
8 DMSO) or compound HB1, HB2 or HB3 (50 µM, 1% DMSO) in buffer 50 mM HEPES
9 pH 7.5, 150 mM NaCl, 0.5 mM TCEP for 20 h at 4 °C. Protein-compound complexes
11 capture buffer 50 mM Tris pH 7.5, 150 mM NaCl, 5 mM MgCl2, 20 mM imidazole, 0.5
12 mM TCEP, 0.5% IGEPAL for 2 h at 4 °C, with rotation. Beads were washed once with
13 capture buffer to remove excess unreacted compound. Ubiquitination assay reaction
14 mixture comprised components as described above, with the addition of 4 µM BRD4
15 substrate. For reaction with control compound HB1a (JQ1-2PEG), 4 µM HB1a was
16 added directly to the ubiquitination assay reaction mixture. Samples were analysed as
17 described above, and by western blotting against BRD4 (Abcam, ab128874, 1:1000),
18 which was detected by anti-rabbit-HRP secondary antibody (Dako, P0399, 1:2000).
19 Blots were developed in Amersham ECL Western Blotting Detection Reagent (Cytiva,
20 RPN2106), imaged on a ChemiDoc MP Imaging System (Bio-Rad), and bands were
21 analysed in ImageLab (Bio-Rad). […]

T1 sequence (Q14258 435-630): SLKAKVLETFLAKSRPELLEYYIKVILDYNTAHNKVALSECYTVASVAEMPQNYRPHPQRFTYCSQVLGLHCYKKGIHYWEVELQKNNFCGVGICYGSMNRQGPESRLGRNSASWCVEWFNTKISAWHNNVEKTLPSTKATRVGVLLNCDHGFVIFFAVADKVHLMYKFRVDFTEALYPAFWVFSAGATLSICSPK
T2 sequence (Q14258 whole entry, other chains not shown, canonical isoform): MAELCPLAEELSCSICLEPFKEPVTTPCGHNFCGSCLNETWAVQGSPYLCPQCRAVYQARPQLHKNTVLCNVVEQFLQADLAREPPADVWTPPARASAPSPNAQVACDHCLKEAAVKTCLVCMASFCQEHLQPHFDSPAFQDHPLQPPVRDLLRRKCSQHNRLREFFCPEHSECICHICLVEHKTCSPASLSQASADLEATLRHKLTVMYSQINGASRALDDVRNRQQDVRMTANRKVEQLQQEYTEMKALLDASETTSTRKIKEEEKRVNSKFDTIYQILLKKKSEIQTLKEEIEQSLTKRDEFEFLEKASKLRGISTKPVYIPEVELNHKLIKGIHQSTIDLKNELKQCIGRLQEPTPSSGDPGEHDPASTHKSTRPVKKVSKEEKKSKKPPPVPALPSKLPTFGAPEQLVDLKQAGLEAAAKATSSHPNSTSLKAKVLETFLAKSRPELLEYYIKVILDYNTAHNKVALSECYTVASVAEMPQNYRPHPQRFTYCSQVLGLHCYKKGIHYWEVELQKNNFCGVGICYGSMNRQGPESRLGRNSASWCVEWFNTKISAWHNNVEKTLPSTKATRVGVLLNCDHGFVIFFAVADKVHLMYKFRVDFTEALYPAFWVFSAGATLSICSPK

Regarding `Cc1cc(C(=O)N2CCCN(C(=O)CCl)CC2)ccc1-c1ccccc1` [Compound 10], the “TRIM25 PRYSPRY labelling (%)” value at TRIM25 PRYSPRY worked out at 94%. For the same compound, the “targeted ubiquitination of BRD4 by TRIM25” value (“targeted ubiquitination” for short) in assay [1] is reported as “no targeted ubiquitination of BRD4 was observed”.

In the case of `Cc1cc(C(=O)N2CCCN(C(=O)CCl)CC2)ccc1-c1cccc(C(=O)NCCOCCOCCOCCOCCNC(=O)C[C@@H]2N=C(c3ccc(Cl)cc3)c3c(sc(C)c3C)-n3c(C)nnc32)c1` [HB3], at TRIM25 PRYSPRY, the “TRIM25 PRYSPRY labelling” value is reported as 87%. Moreover, the “targeted ubiquitination” value in assay [1] is “heterobifunctional compound-induced ubiquitination of BRD4”.

Consider `CC1Cc2ccccc2N1C(=O)C1CCCN(C(=O)CCl)C1` (stereo not drawn) [Compound 11], for which, at TRIM25 PRYSPRY, the “TRIM25 PRYSPRY labelling (%)” value came to 96%.

On to `Cc1cc(C(=O)N2CCCN(C(=O)CCl)CC2)ccc1-c1cccc(C(=O)NCCOCCOCCNC(=O)C[C@@H]2N=C(c3ccc(Cl)cc3)c3c(sc(C)c3C)-n3c(C)nnc32)c1` [HB1], for which, on TRIM25 PRYSPRY, the “TRIM25 PRYSPRY labelling” value is 49%. For the same compound, in assay [1], the “targeted ubiquitination” value is “heterobifunctional compound-induced ubiquitination of BRD4”.

For `Cc1cc(C(=O)N2CCCN(C(=O)CCl)CC2)ccc1-c1cccc(C(=O)NCCOCCOCCOCCNC(=O)C[C@@H]2N=C(c3ccc(Cl)cc3)c3c(sc(C)c3C)-n3c(C)nnc32)c1` [HB2], at TRIM25 PRYSPRY, the “TRIM25 PRYSPRY labelling” value was 75%. In assay [1], the “targeted ubiquitination” value was “heterobifunctional compound-induced ubiquitination of BRD4”.

Source of the values: PMC12067093, “Discovery and optimisation of a covalent ligand for TRIM25 and its application to targeted protein ubiquitination” (Chemical Science, 2025).
